Data as given in ChEMBL document CHEMBL6074674, “Development of Novel Silicon-Based Hydrophobic Tags (SiHyT) for Targeted Proteins Degradation” (J Med Chem, 2024).
pIC50: −log10 of the molar value.

tested on: HCC827; experiment: Antiproliferative activity against human HCC827 cells assessed as decrease in cell survival measured after 72 hrs by CCK-8 assay; format: functional, cell-based; conditions: HCC827, 72 h

Row | Compound | pIC50
1 | COc1cc2ncnc(Nc3ccc(F)c(Cl)c3)c2cc1OCCn1cc(CCCCO[Si](C)(C)C2CCCCC2)nn1 | 6.15
2 | CC[Si](CC)(CC)OCCCc1cn(CCOc2cc3c(Nc4ccc(F)c(Cl)c4)ncnc3cc2OC)nn1 | 6.48
3 | COc1cc2ncnc(Nc3ccc(F)c(Cl)c3)c2cc1OCCOCCOCCO[Si](c1ccccc1)(c1ccccc1)C(C)(C)C | < 5.00
4 | COc1cc2ncnc(Nc3ccc(F)c(Cl)c3)c2cc1OCCn1cc(CCCO[Si](C)(C)C(C)(C)C)nn1 | 5.25
5 | COc1cc2ncnc(Nc3ccc(F)c(Cl)c3)c2cc1OCCCN1CCN(CCn2cc(CCO[Si](c3ccccc3)(c3ccccc3)C(C)(C)C)nn2)CC1 | 6.00
6 | COc1cc2ncnc(Nc3ccc(F)c(Cl)c3)c2cc1OCCCN1CCN(CCCO[Si](c2ccccc2)(c2ccccc2)C(C)(C)C)CC1 | < 5.00

tested on: E3 ubiquitin-protein ligase RNF149/Epidermal growth factor receptor (Homo sapiens), P00533+Q8NC42 [UNDEFINED MUTATION]; experiment: SiHyT-mediated degrader activity at RNF149/EGFR mutant in human HCC827 cels assessed as induction of EGFR degradation at 0.1 uM cells incubated in serum-free media for 8 hrs followed by incubation with compound for 24 hrs by western blot analysis; format: cell-based; conditions: not given
Sequence (P00533 whole entry, looked up, change not shown): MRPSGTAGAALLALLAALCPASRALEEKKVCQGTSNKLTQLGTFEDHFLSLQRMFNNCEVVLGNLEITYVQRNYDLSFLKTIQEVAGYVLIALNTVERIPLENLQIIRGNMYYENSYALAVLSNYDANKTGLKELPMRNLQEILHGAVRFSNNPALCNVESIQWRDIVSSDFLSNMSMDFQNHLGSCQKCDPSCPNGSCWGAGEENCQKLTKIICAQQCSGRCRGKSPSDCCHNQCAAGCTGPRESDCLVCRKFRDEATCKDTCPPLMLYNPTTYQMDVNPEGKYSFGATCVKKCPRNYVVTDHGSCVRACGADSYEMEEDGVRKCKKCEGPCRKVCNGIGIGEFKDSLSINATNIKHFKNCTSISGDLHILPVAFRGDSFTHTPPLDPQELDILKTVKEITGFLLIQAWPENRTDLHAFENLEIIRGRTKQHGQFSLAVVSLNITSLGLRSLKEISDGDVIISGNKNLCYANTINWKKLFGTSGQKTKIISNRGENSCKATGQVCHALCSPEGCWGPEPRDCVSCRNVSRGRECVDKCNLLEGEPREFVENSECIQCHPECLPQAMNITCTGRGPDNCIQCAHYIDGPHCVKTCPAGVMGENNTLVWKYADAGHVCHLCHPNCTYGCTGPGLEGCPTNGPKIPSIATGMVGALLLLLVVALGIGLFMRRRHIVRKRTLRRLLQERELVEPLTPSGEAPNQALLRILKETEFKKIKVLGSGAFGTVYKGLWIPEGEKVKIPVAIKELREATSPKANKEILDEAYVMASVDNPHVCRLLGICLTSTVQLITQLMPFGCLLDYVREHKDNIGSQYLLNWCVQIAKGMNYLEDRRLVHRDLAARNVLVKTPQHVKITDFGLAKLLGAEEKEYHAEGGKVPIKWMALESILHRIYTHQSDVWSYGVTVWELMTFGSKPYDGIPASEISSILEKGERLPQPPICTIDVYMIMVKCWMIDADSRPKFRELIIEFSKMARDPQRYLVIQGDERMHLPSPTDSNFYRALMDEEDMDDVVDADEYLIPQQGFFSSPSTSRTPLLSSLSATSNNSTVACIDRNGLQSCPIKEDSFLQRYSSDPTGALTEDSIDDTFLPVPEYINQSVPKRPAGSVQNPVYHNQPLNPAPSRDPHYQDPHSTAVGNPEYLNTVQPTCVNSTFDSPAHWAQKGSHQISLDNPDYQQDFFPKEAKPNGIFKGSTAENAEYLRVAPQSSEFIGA
Sequence (Q8NC42 whole entry, looked up, change not shown): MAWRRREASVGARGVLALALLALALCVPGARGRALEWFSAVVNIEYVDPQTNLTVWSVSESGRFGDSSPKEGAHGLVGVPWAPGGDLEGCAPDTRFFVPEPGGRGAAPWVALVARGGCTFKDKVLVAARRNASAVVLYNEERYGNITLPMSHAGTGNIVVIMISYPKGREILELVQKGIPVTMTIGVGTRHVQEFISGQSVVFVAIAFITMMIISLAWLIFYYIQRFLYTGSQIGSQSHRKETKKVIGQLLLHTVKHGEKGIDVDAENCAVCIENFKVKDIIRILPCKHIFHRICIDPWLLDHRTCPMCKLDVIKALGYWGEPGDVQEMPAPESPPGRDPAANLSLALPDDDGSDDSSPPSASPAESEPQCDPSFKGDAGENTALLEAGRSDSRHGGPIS

Row | Compound | Activity [%]
7 | COc1cc2ncnc(Nc3ccc(F)c(Cl)c3)c2cc1OCCOCCOCCO[Si](c1ccccc1)(c1ccccc1)C(C)(C)C | 0
8 | COc1cc2ncnc(Nc3ccc(F)c(Cl)c3)c2cc1OCCCN1CCN(CCn2cc(CCO[Si](c3ccccc3)(c3ccccc3)C(C)(C)C)nn2)CC1 | 0
9 | COc1cc2ncnc(Nc3ccc(F)c(Cl)c3)c2cc1OCCCN1CCN(CCCO[Si](c2ccccc2)(c2ccccc2)C(C)(C)C)CC1 | 0

Next, values leading:

Row | Activity [%] | Compound
10 | 46.1 | COc1cc2ncnc(Nc3ccc(F)c(Cl)c3)c2cc1OCCn1cc(CCCCO[Si](C)(C)C2CCCCC2)nn1
11 | 38.2 | CC[Si](CC)(CC)OCCCc1cn(CCOc2cc3c(Nc4ccc(F)c(Cl)c4)ncnc3cc2OC)nn1
12 | 19.7 | COc1cc2ncnc(Nc3ccc(F)c(Cl)c3)c2cc1OCCn1cc(CCCO[Si](C)(C)C(C)(C)C)nn1

tested on: E3 ubiquitin-protein ligase RNF149/Epidermal growth factor receptor (Homo sapiens), P00533+Q8NC42 [UNDEFINED MUTATION]; experiment: SiHyT-mediated degrader activity at RNF149/EGFR mutant in human HCC827 cells assessed as induction of EGFR degradation at 1 uM cells incubated in serum-free media for 8 hrs followed by incubation with compound for 24 hrs by western blot analysis; format: cell-based; conditions: not given

Row | Compound | Activity [%]
13 | COc1cc2ncnc(Nc3ccc(F)c(Cl)c3)c2cc1OCCOCCOCCO[Si](c1ccccc1)(c1ccccc1)C(C)(C)C | 20.1
14 | COc1cc2ncnc(Nc3ccc(F)c(Cl)c3)c2cc1OCCCN1CCN(CCn2cc(CCO[Si](c3ccccc3)(c3ccccc3)C(C)(C)C)nn2)CC1 | 58
15 | COc1cc2ncnc(Nc3ccc(F)c(Cl)c3)c2cc1OCCCN1CCN(CCCO[Si](c2ccccc2)(c2ccccc2)C(C)(C)C)CC1 | 0

Second part, the compound after the results:

Row | Activity [%] | Compound
16 | 53.2 | COc1cc2ncnc(Nc3ccc(F)c(Cl)c3)c2cc1OCCn1cc(CCCCO[Si](C)(C)C2CCCCC2)nn1
17 | 79.1 | CC[Si](CC)(CC)OCCCc1cn(CCOc2cc3c(Nc4ccc(F)c(Cl)c4)ncnc3cc2OC)nn1
18 | 22.4 | COc1cc2ncnc(Nc3ccc(F)c(Cl)c3)c2cc1OCCn1cc(CCCO[Si](C)(C)C(C)(C)C)nn1
